Common to all, as to assay type: physicochemical
Series [1] in a line: Static storage at elevated temperature and humidity, form by XRPD. Particulars: for form after static storage: (10 days), Form II prepared at 1 g scale; for form (XRPD) after static storage: 1 week. As to the method:
After static storage of amorphous aticaprant at 40° C./75% RH for 1 week, Form II was obtained.
Fresh amorphous aticaprant was prepared for static storage at 40° C./75% RH for 1 week. Both solvents produced amorphous aticaprant. Tg was determined to be 45.5° C. by mDSC. See, Table 19 for the characterization of amorphous aticaprant.
Form I was obtained in the screens from ethyl acetate and MEK (both through solvent evaporation). It also was obtained from addition of heptane antisolvent to solutions in ethyl acetate and diethyl ether. The sample from the solubility assessment in ethyl acetate was isolated and characterized by XRPD, ^1H NMR, and DSC (FIG. 7), and static storage at elevated temperature and humidity.

A short description of series [2]: Gravimetric vapor sorption (GVS). How it is done:
Sorption isotherms were obtained using a SMS DVS Intrinsic moisture sorption analyzer, controlled by DVS Intrinsic Control software. The sample temperature was maintained at 25° C. by the instrument controls. The humidity was controlled by mixing streams of dry and wet nitrogen, with a total flow rate of 200 mL/min. The relative humidity was measured by a calibrated Rotronic probe (dynamic range of 1.0-100% RH), located near the sample. The weight change, (mass relaxation) of the sample as a function of % RH was constantly monitored by a microbalance (accuracy ±0.005 mg).
Typically, 5-30 mg of sample was placed in a tared mesh stainless steel basket under ambient conditions. The sample was loaded and unloaded at 40% RH and 25° C. (typical room conditions). A moisture sorption isotherm was performed as outlined below (2 scans per complete cycle). The standard isotherm was performed at 25° C. at 10% RH intervals over a 0-90% RH range. Typically, a double cycle (4 scans) was carried out. Data analysis was carried out within Microsoft Excel using the DVS Analysis Suite. See, Table 15.
The sample was recovered after completion of the isotherm and re-analyzed by XRPD.

The nature of series [3]: Competitive slurries of Forms I, II and III (thermodynamic stability). How it is done:
Competitive slurrying experiments were carried out with Form I, Form II and Form III to determine the relative order of stability. Slurrying experiments were carried out in six different solvent systems 5 and 50° C.
Saturated solutions of Form III were prepared in different solvent systems. See, Table 32. Each vial was filled with the relevant solvent (1.5 mL in each) and placed to equilibrate at the relevant temperature. After this time, small spatulas of the solid were added until the solid no longer dissolved. Samples were left to stir at 5° C. and 50° C. for ca. 2 weeks or longer as noted.
Form III (180 mg) and Form II (180 mg) were combined into a 4 mL vial. The sample was placed on a turbula blender for 30 mins, after which a small sample was taken and analyzed by XRPD to confirm a mixture. 10 mg of this mixture was weighed and a mixture of Form I and Form II was instead used as seeds in the competitive slurries. To each vial was added the mixture of Forms I and II (7 mg). See, Table 33.

A short description of series [4]: Solubility observation of Form III in solvents. How it is done:
Form III of aticaprant (20 mg) was weighed into 3 HPLC vials. Each vial was treated with 10 vol (250 μL) of the relevant solvent at 25° C. and shaken. The sample in t-BuOH was placed at 90° C. for a few seconds, where a solution was obtained. The solutions were filtered using a 0.45 μm PTFE membrane Acrodisc filter, before being flash frozen in an acetone/dry ice bath for 5 minutes. The samples were then freeze-dried overnight. The resulting solids were characterized by XRPD.
[…] Form III of aticaprant (20 mg) was dispensed into amber HPLC vials (×49) with a magnetic stirrer bar. Each vial was treated with the relevant solvent (5 vol) at RT and stirred at 300 rpm for 10 mins. If suspensions were still observed, increasing volumes of the solvent were added until the material fully dissolved or until a maximum of 80 vol had been used (Table 20). All samples were heated to 50° C. and held for 1 hour. The samples were then cooled to 5° C. at a rate of 0.1° C./min and left to stir overnight. Any suspensions remaining at this point were subjected to maturation at RT/50° C. for 2 weeks.

Entries after “also recorded” stand apart in the source; their conditions may differ.

Turning to `Cc1cc(C)cc(C2CCCN2Cc2ccc(Oc3ccc(C(N)=O)cc3F)cc2)c1` (centres unmarked) [Form II], the “stability after static storage at elevated temperature and humidity (in words)” value in series [1] is “remained stable”. Besides, the “form after static storage” value in series [1] (25° C./97% RH) is recorded as “Form II”. The “form after static storage” value in series [1] (40° C./75% RH) is “Form II”. Further, in series [2], the GVS hysteresis result is given as “slight hysteresis”, the “XRPD / form after GVS” value is “XRPD post-GVS: Form II” and the “hygroscopicity (in words)” value is on record as “slightly hygroscopic; also recorded: Sample exhibits low hygroscopicity”.

As to `Cc1cc(C)cc(C2CCCN2Cc2ccc(Oc3ccc(C(N)=O)cc3F)cc2)c1` (centres unmarked) [amorphous aticaprant], the “form (XRPD) after static storage” value in series [1] (40° C./75% RH) is recorded as “Form II”; in series [1] (40° C./75% RH, listed as amorphous Aticaprant) it was “Form II”.

For `Cc1cc(C)cc(C2CCCN2Cc2ccc(Oc3ccc(C(N)=O)cc3F)cc2)c1` (centres unmarked) [Form III], the GVS hysteresis result in series [2] was “No hysteresis observed”. In addition, the “XRPD / form after GVS” value in series [2] is given as “XRPD unchanged after GVS”. In series [2] (at 90% RH, 25° C.), the GVS max uptake came to 0.4% max uptake at 90% RH. In addition, the “relative stability among Forms I, II and III (in words)” value in series [3] is reported as “most stable form”. The solubility observation entry in series [4] (70% THF/H2O, 250 μL/10 vol, RT) is reported as “Soluble, biphasic”; in series [4] (t-BuOH at 90° C.), “(soluble at 90° C.)”; in series [4] (t-BuOH, 250 μL/10 vol, 25° C.), “Insoluble”.

With `Cc1cc(C)cc(C2CCCN2Cc2ccc(Oc3ccc(C(N)=O)cc3F)cc2)c1` (centres unmarked) [Form I], the “stability after static storage at elevated temperature and humidity (in words)” value in series [1] is reported as “remains stable”. Further, the “form (XRPD) after static storage” value in series [1] (40° C./75% RH) is reported as “Form I”.

These data come from patent publication US12171743B2, “Forms of aticaprant” (Janssen Pharmaceuticals, Inc., priority 2022, dated 2024).
